Activity calls are given as the source filed them. The calls are words filed in the database; no cut-off is given here.
Key:
MGC-803 [1] = test: Induction of apoptosis in human MGC-803 cells assessed as early apoptotic cells at 0.05 uM incubated for 24 hrs by propidium iodide and Annexin V/FITC staining based flow cytometry assay (reference value: 1.85%); assay type: functional
RKO [2] = test: Induction of cell cycle arrest in human RKO cells assessed as accumulation of cells at G2/M phase at 0.05 to 0.2 uM incubated for 24 hrs by propidium iodide staining based flow cytometry analysis; assay type: functional; details: dose 0.05-0.2 µM
GES1 = test: Antiproliferative activity against human GES1 cells assessed as reduction in cell viability incubated for 72 hrs by MTT assay; assay type: functional, cell-based; details: GES1, 72 h
HGC-27 = test: Antiproliferative activity against human HGC-27 cells assessed as reduction in cell viability incubated for 72 hrs by MTT assay; assay type: functional, cell-based; details: HGC-27, 72 h
MGC-803 [3] = test: Induction of morphological changes in human MGC-803 cells assessed as cell shrinkage at 0.05 to 0.2 uM incubated for 24 hrs by Giemsa staining based micrscopic analysis; assay type: functional; details: dose 0.05-0.2 µM
MGC-803 [4] = test: Induction of morphological changes in human MGC-803 cells assessed as formation of apoptotic bodies at 0.05 to 0.2 uM incubated for 24 hrs by Giemsa staining based micrscopic analysis; assay type: functional, cell-based; details: dose 0.05-0.2 µM
MGC-803 [5] = test: Induction of cell cycle arrest in human MGC-803 cells assessed as accumulation of cells at G2/M phase at 0.05 to 0.2 uM incubated for 24 hrs by propidium iodide staining based flow cytometry analysis; assay type: functional; details: dose 0.05-0.2 µM
RKO [6] = test: Induction of apoptosis in human RKO cells assessed as early apoptotic cells at 0.1 uM incubated for 24 hrs by propidium iodide and Annexin V/FITC staining based flow cytometry assay (reference value: 0.16%); assay type: functional
RKO [7] = test: Induction of morphological changes in human RKO cells assessed as formation of apoptotic bodies at 0.05 to 0.2 uM incubated for 24 hrs by Giemsa staining based micrscopic analysis; assay type: functional, cell-based; details: dose 0.05-0.2 µM
Tubulin (Homo sapiens) = Tubulin (Homo sapiens) (UniProt P68371+Q9H4B7+P0DPH7+P68366+Q13509+Q71U36+P04350+Q3ZCM7+P07437+P68363+Q9BQE3+Q6PEY2+Q13885+Q9BVA1+Q9BUF5); test: Induction of microtubule disruption in human RKO cells assessed as atrophied nucleus at 50 to 200 nM incubated for 24 hrs by laser confocal microscopic analysis; assay type: cell-based; details: dose 50-200 nM
MGC-803 [8] = test: Induction of apoptosis in human MGC-803 cells assessed as late apoptotic cells at 0.2 uM incubated for 24 hrs by propidium iodide and Annexin V/FITC staining based flow cytometry assay (reference value: 4.10%); assay type: functional
RKO [9] = test: Induction of morphological changes in human RKO cells assessed as cell deformation at 0.05 to 0.2 uM incubated for 24 hrs by Giemsa staining based micrscopic analysis; assay type: functional; details: dose 0.05-0.2 µM
MGC-803 [10] = test: Induction of apoptosis in human MGC-803 cells assessed as early apoptotic cells at 0.2 uM incubated for 24 hrs by propidium iodide and Annexin V/FITC staining based flow cytometry assay (reference value: 1.85%); assay type: functional
[11] = Induction of cell cycle arrest in human RKO cells assessed as accumulation of cells at G2/M phase at 0.05 uM incubated for 24 hrs by propidium iodide staining based flow cytometry analysis; assay type: functional
MGC-803 [12] = test: Antiproliferative activity against human MGC-803 cells assessed as reduction in cell viability incubated for 24 hrs by BrdU staining based fluorescence microscopic analysis; assay type: functional; details: dose 10-90 nM
[13] = target: T1, DNA topoisomerase 1 (Homo sapiens) (UniProt P11387); test: Inhibition of topoisomerase 1 (unknown origin) at 200 uM using PBR322 DNA as substrate incubated for 30 mins by agarose gel electrophoresis
T1 sequence (whole entry): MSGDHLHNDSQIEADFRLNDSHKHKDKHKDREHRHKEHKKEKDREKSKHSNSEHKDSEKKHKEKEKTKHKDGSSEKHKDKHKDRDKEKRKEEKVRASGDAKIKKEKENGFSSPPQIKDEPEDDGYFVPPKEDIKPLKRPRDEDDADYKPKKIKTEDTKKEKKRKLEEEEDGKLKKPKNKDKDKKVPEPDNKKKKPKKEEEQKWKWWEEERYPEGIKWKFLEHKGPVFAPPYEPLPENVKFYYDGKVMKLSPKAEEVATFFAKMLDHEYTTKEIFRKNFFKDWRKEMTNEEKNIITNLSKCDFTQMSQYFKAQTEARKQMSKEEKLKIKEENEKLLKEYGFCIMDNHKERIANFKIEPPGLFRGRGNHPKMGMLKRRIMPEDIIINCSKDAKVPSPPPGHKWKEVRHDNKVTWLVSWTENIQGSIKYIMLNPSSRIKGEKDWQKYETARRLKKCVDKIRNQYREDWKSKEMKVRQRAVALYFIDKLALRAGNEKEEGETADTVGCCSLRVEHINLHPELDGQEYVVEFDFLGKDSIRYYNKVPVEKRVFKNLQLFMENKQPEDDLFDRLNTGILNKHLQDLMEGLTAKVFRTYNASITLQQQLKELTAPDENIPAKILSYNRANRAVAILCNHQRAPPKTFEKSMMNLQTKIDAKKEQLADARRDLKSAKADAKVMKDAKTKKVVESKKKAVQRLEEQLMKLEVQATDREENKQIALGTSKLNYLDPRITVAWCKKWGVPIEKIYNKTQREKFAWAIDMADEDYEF

RKO [14] = test: Induction of morphological changes in human RKO cells assessed as cell shrinkage at 0.05 to 0.2 uM incubated for 24 hrs by Giemsa staining based micrscopic analysis; assay type: functional; details: dose 0.05-0.2 µM
MGC-803 [15] = test: Induction of morphological changes in human MGC-803 cells assessed as cell deformation at 0.05 to 0.2 uM incubated for 24 hrs by Giemsa staining based micrscopic analysis; assay type: functional; details: dose 0.05-0.2 µM
RKO [16] = test: Antiproliferative activity against human RKO cells assessed as reduction in cell viability incubated for 24 hrs by BrdU staining based fluorescence microscopic analysis; assay type: functional; details: dose 10-90 nM
MGC-803 [17] = test: Induction of apoptosis in human MGC-803 cells assessed as late apoptotic cells at 0.1 uM incubated for 24 hrs by propidium iodide and Annexin V/FITC staining based flow cytometry assay (reference value: 4.10%); assay type: functional
MGC-803 [18] = test: Induction of cell cycle arrest in human MGC-803 cells assessed as accumulation of cells at G2/M phase at 0.05 uM incubated for 24 hrs by propidium iodide staining based flow cytometry analysis; assay type: functional
RKO [19] = test: Inhibition of colony formation in human RKO cells incubated for 7 days by crystal violet staining based assay; assay type: functional, cell-based; details: dose 10-90 nM, time 7.0 day
RKO [20] = test: Induction of apoptosis in human RKO cells assessed as early apoptotic cells at 0.05 uM incubated for 24 hrs by propidium iodide and Annexin V/FITC staining based flow cytometry assay (reference value: 0.16%); assay type: functional
LoVo = test: Antiproliferative activity against human LoVo cells assessed as reduction in cell viability incubated for 72 hrs by MTT assay; assay type: functional, cell-based
RKO [21] = test: Induction of apoptosis in human RKO cells assessed as late apoptotic cells at 0.1 uM incubated for 24 hrs by propidium iodide and Annexin V/FITC staining based flow cytometry assay (reference value: 0.50%); assay type: functional
MGC-803 [22] = test: Inhibition of cell migration in human MGC-803 cells assessed as reduction in tumor wound healing incubated for 24 hrs by microscopic analysis; assay type: functional, cell-based; details: dose 10-90 nM

CCCN1c2ccccc2C(=O)N2CCc3c([nH]c4ccccc34)C21 (stereo unspecified)
Activity (MGC-803 [1]): 3.03%
Activity (RKO [2]): Active
IC50 (GES1): 130 nM
IC50 (HGC-27): 810 nM
Activity (MGC-803 [3]): Active
Activity (MGC-803 [4]): Active
Activity (MGC-803 [5]): Active
Activity (RKO [6]): 14.52%
Activity (RKO [7]): Active
Activity (Tubulin (Homo sapiens)): Active
Activity (MGC-803 [8]): 25.1%
Activity (RKO [9]): Active
Activity (MGC-803 [10]): 12.28%
Activity [11]: 40.55%
Activity (MGC-803 [12]): Dose-Dependent Effect
inhibition [13]: Active
Activity (RKO [14]): Active
Activity (MGC-803 [15]): Active
Activity (RKO [16]): Dose-Dependent Effect
Activity (MGC-803 [17]): 24.63%
Activity (MGC-803 [18]): 40.55%
inhibition (RKO [19]): Dose-Dependent Effect
Activity (RKO [20]): 9.67%
IC50 (LoVo): 230 nM
Activity (RKO [21]): 33.41%
inhibition (MGC-803 [22]): Dose-Dependent Effect

Reference: ChEMBL document CHEMBL5321222, “N(14)-substituted evodiamine derivatives as dual topoisomerase 1/tubulin-Inhibiting anti-gastrointestinal tumor agents” (Eur J Med Chem, 2023)
